Assays:
[1] = tested on: catalepsy induced by the DA receptor antagonist haloperidol; conditions: cited from earlier work
M4 knockout mice = conditions: but not the other four mAChR subtypes; cited from earlier work
Human M4 = target: T1, Human M4 (Homo sapiens, UniProt P08173); assay: mAChR M4 cell-based functional assay (calcium flux, antagonist mode); conditions: for IC50: Human M4/Gqi5 CHO-K1 cells, decrease of acetylcholine response; for Emin (% ACh maximum at 30 μM): Human M4
T1 construct: Human or rat M4 cDNA, along with the chimeric G protein Gqi5, were transfected into Chinese hamster ovary (CHO-K1) cells; expressed in transfected cells; host or cells: CHO-K1 (Chinese hamster ovary, ATCC), stably expressing M4 and Gqi5
T1 sequence (P08173 1-479): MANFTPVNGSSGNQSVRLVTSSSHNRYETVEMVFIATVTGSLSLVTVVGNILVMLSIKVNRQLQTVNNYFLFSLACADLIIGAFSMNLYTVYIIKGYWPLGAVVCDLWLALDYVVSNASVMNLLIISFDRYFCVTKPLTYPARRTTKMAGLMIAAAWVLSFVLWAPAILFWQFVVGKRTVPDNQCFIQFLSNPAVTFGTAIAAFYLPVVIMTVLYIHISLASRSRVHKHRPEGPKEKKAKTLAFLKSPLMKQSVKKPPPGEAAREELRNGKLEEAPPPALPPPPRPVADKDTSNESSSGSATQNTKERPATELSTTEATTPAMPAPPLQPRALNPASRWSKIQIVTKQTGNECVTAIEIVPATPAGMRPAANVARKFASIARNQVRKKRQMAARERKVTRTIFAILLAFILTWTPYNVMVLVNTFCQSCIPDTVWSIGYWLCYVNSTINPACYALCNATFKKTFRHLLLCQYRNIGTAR
Protocol: Human or rat M4 cDNA, along with the chimeric G protein Gqi5, were transfected into Chinese hamster ovary (CHO-K1) cells purchased from the American Type Culture Collection using Lipofectamine2000. M4/Gqi5/CHO cells were grown in Ham's F-12 medium containing 10% heat-inactivated fetal bovine serum (FBS), 20 mM HEPES, 500 μg/mL G418 sulfate, and 200 μg/mL Hygromycin B.
For high throughput measurement of agonist-evoked increases in intracellular calcium, CHO-K1 cells stably expressing muscarinic receptors were plated in growth medium lacking G418 and hygromycin at 15,000 cells/20 μL/well in Greiner 384-well black-walled, tissue culture (TC)-treated, clear-bottom plates (VWR). Cells were incubated overnight at 37° C. and 5% CO2. The next day, cells were washed using an ELX 405 (BioTek) with assay buffer; the final volume was then aspirated to 20 μL. Next, 20 μL of a 2.3 μM stock of Fluo-4/acetoxymethyl ester (Invitrogen, Carlsbad, CA), prepared as a 2.3 mM stock in DMSO and mixed in a 1:1 ratio with 10% (w/v) Pluronic F-127 and diluted in assay buffer, was added to the wells and the cell plates were incubated for 50 min at 37° C. and 5% CO2. Dye was removed by washing with the ELX 405 and the final volume was aspirated to 20 μL. Compound master plates were formatted in a 10 point concentration-response curve (CRC) format (1:3 dilutions) in 100% DMSO with a starting concentration of 10 or 1 mM using a BRAVO liquid handler (Agilent). Test compound CRCs were then transferred to daughter plates (240 nL) using the Echo acoustic plate reformatter (Labcyte, Sunnyvale, CA) and then diluted into assay buffer (40 μL) to a 2× stock using a Thermo Fisher Combi (Thermo Fisher Scientific, Waltham, MA).
Calcium flux was measured using the Functional Drug Screening System (FDSS) 6000 or 7000 (Hamamatsu Corporation, Tokyo, Japan) as an increase in the fluorescent static ratio. Compounds were applied to cells (20 μL, 2×) using the automated system of the FDSS at 2 seconds into the protocol and the data were collected at 1 Hz. At 143 s, 10 μL of an EC20 concentration of the muscarinic receptor agonist acetylcholine was added (5×), followed by the addition of 12 μL of an […] concentration of acetylcholine at the 268 s time point (5×). Agonist activity was analyzed as a concentration-dependent increase in calcium mobilization upon compound addition. Positive allosteric modulator activity was analyzed as a concentration-dependent increase in the EC20 acetylcholine response. Antagonist activity was analyzed as a concentration-dependent decrease in the EC80 acetylcholine response; for the purposes of the tables herein, an IC50 (inhibitory concentration 50) was calculated as a concentration-dependent decrease of the response elicited by an […] concentration of acetylcholine. Concentration-response curves were generated using a four-parameter logistical equation in XLFit curve fitting software (IDBS, Bridgewater, NJ) for Excel (Microsoft, Redmond, WA) or Prism (GraphPad Software, Inc., San Diego, CA) or the Dotmatics software platform (Dotmatics, Bishop's Stortford, UK).
Compounds were synthesized as described above. Activity (IC50 and Emin) was determined in the mAChR M4 cell-based functional assay as described above and the data are shown in Table 1.

Compound | reduction of haloperidol-induced catalepsy ([1]; M4 KO mice) | reversal of haloperidol-induced catalepsy ([1]; WT mice) | locomotor-activating effects (M4 knockout mice) | IC50 (Human M4) [nM] | Emin (% ACh maximum at 30 μM) (Human M4) [%]
CN1[C@@H]2C[C@@H](OC(=O)[C@H](CO)c3ccccc3)C[C@H]1[C@@H]1O[C@@H]12 [scopolamine] | ineffective | completely reversed | dramatically reduced | – | –
O=c1cc(-c2ccc(N[C@H]3C[C@@H]4CN(CC5CCOCC5)C[C@@H]4C3)nn2)ccn1C(F)F [A6, 1-(difluoromethyl)-4-(6-(((3aR,5s,6aS)-2-((tetrahydro-2H-pyran-4-yl)methyl)octahydrocyclopenta[c]pyrrol-5-yl)amino)pyridazin-3-yl)pyridin-2(1H)-one] | – | – | – | 5.9 | 9
Cc1cc(-c2ccc(N[C@H]3C[C@@H]4CN(CC5CCOCC5)C[C@@H]4C3)nn2)c(=O)[nH]n1 [A8, 6′-methyl-6-(((3aR,5s,6aS)-2-((tetrahydro-2H-pyran-4-yl)methyl)octahydrocyclopenta[c]pyrrol-5-yl)amino)-[3,4′-bipyridazin]-3′(2′H)-one] | – | – | – | 136 | 8

— patent publication US20240010640A1, “ANTAGONISTS OF THE MUSCARINIC ACETYLCHOLINE RECEPTOR M4” (Vanderbilt University, priority 2020, published 2024)
